Format in all cases: cell-based
For test [1], the system named is PC3. As to the kind of experiment: MTT antiproliferative assay, PC3. The note with it: PC3 prostate cell line, 48 hrs drug incubation. On the procedure:
(§1) MTT assay is a simple and sensitive assay where, metabolic reducing activity of the cells is measured. The increase of this activity in time is taken as a parameter of cell growth. If treatment with a drug impairs this increase, the action may be a consequence of growth inhibition, cell killing or both. The compounds of Formula V to XIV of the present invention, standard cytotoxic drug (e.g. Cisplatin) were tested at different concentrations (1, 0.1, 0.01, 0.001 mM) using breast and prostate cancer cell lines. All cell lines were cultured in a 37° C. incubator with a 5% CO2 environment. Compounds were dissolved in DMSO with a concentration of 0.1M (stock solution). Cells were seeded into 96-well plates at suitable plating efficiency.
(§2) Following Plating Efficiencies were Standardized for MTT Assay:
(§3) The MTT procedure followed was as follows. Briefly, the cells were plated in 96 well plate as per predetermined plating efficiency (Table 1) The plates were then incubated for 24 hrs in 5% CO2 atmosphere at 37° C. Appropriate concentrations of the drugs were then added to the plate and further incubation was carried out for 48 hrs (in 5% CO2 atmosphere at 37° C.). The assay plate was then centrifuged twice at 3000 rpm for 3 mins and supernatant was then discarded. 100 ul of MTT solution (0.5 mg/ml) was then added to each well of the plate and it was further incubated for 4 hrs (in 5% CO2 atmosphere at 37° C.) Following 4 hr incubation, the plate was then centrifuged twice, and supernatant was aspirated off very carefully. 200 ul of DMSO was then added to each well to solubilize. MTT crystals and mixed well by shaking the plate. XY graph of log Percent viability was then plotted against log drug concentration. […] (Drug concentration inhibiting the 50% of cell population) was then calculated by regression analysis.
Background: Formazan colour is commonly taken as a measure of viable cells.

The test system of test [2] is MDAMB231. As to the kind of experiment: Soft Agar colony-formation Assay, MDAMB231. The settings on record: MDAMB231 breast cell line, 1 week. The procedure:
(§4) The Soft Agar Colony-formation Assay is an anchorage-independent growth assay in soft agar, which is one of the most stringent assays for detecting malignant transformation of cells. For this assay, malignant cells are cultured with appropriate controls in soft agar medium for 1-2 weeks. Following this incubation period, formed colonies can either be analyzed morphologically using cell stain and quantifying the number of colonies formed.
(§5) Briefly, for Soft Agar Assay a mixture of 50 ul of 2× medium (taken appropriately as per cell line) and 50 ul of 1.2% Bacto Agar were plated on to each well of 96 well micro titer assay plate. 10 ul of cells (Of specific plating efficiency pre-standardized for respective cell line) were mixed with 20 ul of 2× medium and 30 ul of 0.8% of Bacto Agar and 1.6 ul of drug (of appropriate concentration) in a vial and transferred to the solidified pre-layers of the assay plates. The cells were then allowed to grow and form colonies at 37° C. and 5% CO2 for 1 week. An intermittent feeding with 50 ul of appropriate 2× medium was performed after 3 days of experimental set up. 16 ul of Alamar Blue (1.5 mg/ml) was then added to all the wells to quantify the developed colonies. The plates were incubated for 24 hrs at 37° C. Absorbance was then measured at 630 nm. XY graph of log Percent viability was then plotted against log drug concentration. IC50 (Drug concentration inhibiting the 50% of cell population) was then calculated by regression analysis.
(§6) Following Plating Efficiencies Were Standardized for Soft Agar Assay: […]

Test [3] relates to DU145. In words: MTT antiproliferative assay, DU145. The settings on record: DU145 prostate cell line, 48 hrs drug incubation. On the procedure:
as §1, §2, §3

Test [4] relates to PC3. As to the kind of experiment: Soft Agar colony-formation Assay, PC3. The note with it: PC3 prostate cell line, 1 week. On the procedure:
as §4, §5, §6

Test [5] relates to MDAMB231. In words: MTT antiproliferative assay, MDAMB231. The note with it: MDAMB231 breast cell line, 48 hrs drug incubation. The procedure:
as §1, §2, §3

Test [6] concerns spheres of PC3. As to the kind of experiment: In vitro sphere-forming assay, PC3 in Prostosphere media. The note with it: 2000 cells/well, n = 6 ± S.D. The source says: (§7) Sphere assay measures the ability of Cancer Stein Cells to form spheres in specially designed serum-free medium. We have used this assay to measure the killing efficiency of the test compounds as compared to the standard chemotherapeutic drug, Cisplatin.
(§8) Materials and Reagents:50× B27 Supplement (Life Technologies, Invitrogen, Catalog No.: 17502-044), Fibroblast Growth Factor (FGF) (Sigma-Aldrich, Catlog No.: F029125), Epidermal Growth Factor (EGF) (Sigma-Aldrich, Catlog No.: E9644), Insulin (Sigma, Catlog No.: 19278), Dulbecco's Modified Eagle Medium/F12 (HiMedia Catlog No.: AL139-6), Dulbecco's Phosphate Buffered Saline (HiMedia Catlog No.: TL1006), Trypan Blue (TC193), Prostate Epithelial Media (LONZA, Catlog No.: CC-3166) MEGM (LONZA, Catlog No.: CC-3051), Heparin (Sigma, Catlog No.: H3393), Penstrep (HiMedia, Catlog No.: A002)
Prostosphere Media Preparation (For 100 mL):1 g methyl cellulose autoclaved with magnetic stirrer, Plain media (Prostate Epithelial Basal Medium), 100 mL added and dissolved, under magnetic stirring. After complete dissolution, add: Insulin-40 μL, B27-2 mL, EGF-80 μL, Penstrep-1 ml.
(§9) Procedure: —The cells were trypsinised and made into single-cell suspension by passing through cell strainers ([…], respectively), The cells were diluted at the concentration of 2000 cells/100 μL and suspended in either Mammosphere (for breast cell lines) or Prostosphere (for prostate cell lines). 100 μL of this suspension was added into each well of 96-well suspension plates and incubated at 37° C., 5% CO2 for 24 hrs. Appropriate concentrations of the drugs (2 μL) were added into respective wells with 100 μL of stem cell culture medium. Plates were incubated at 37° C., 5% CO2 for 72 hrs. After incubation 2.5 μL of the respective drug concentration and 50 μL of stem cell culture medium were added into each well and the plates were further incubated at 37° C., 5% CO2 for 72 hrs. 3 μL of the respective drug concentration was added with 50 μL of stem cell culture medium again after incubation and plates were incubated again for 72 hrs at 37° C., 5% CO2. Number of primary spheres formed for each concentration was counted. A comparative graph of number of spheres formed was plotted against the concentration and the growth curve was compared with the positive control.

In test [7] the test system is spheres of MDAMB231. As to the kind of experiment: In vitro sphere-forming assay, MDAMB231 in Mammosphere media. The note with it: 2000 cells/well, n = 6 ± S.D.
Text: as §7, §8
Mammosphere Media Preparation (For 100 mL): 1 g methyl cellulose autoclaved with magnetic stirrer Plain media (MEBM), 100 mL added and dissolved under magnetic stirring. After complete dissolution, add: FGF-80 μL, EGF-40 μL, Penstrep-1 mL, Heparin-400 μL.
as §9

For test [8], the system named is MCF7. As to the kind of experiment: MTT antiproliferative assay, MCF7. The note with it: MCF-7 breast cell line, 48 hrs drug incubation. The procedure:
as §1, §2, §3

Where [9] appears, read: Homo sapiens, MDA-MB-231, 168 h.

These results are taken from patent US11680078B2, “Anticancer compounds” (GODAVARI BIOREFINERIES LIMITED, priority 2017, dated 2023).

Structures are written as SMILES. pIC50: −log10 of the molar value. Where “and” joins values, the source holds several entries; their conditions need not be identical. Identical values can stand only once.

In general, pIC50 refers to the IC50 on a negative log10 scale, so that one unit is a factor of ten.

For the compound `Cl.c1ccc(COc2ccc(-c3ccc4c(c3)OCO4)c3cccnc23)cc1` [Formula XIII, 5-(benzo[d][1,3]dioxol-5-yl)-8-(benzyloxy)quinoline hydrochloride], the pIC50 in test [1] (Homo sapiens, PC-3) was 5.36; in test [2] (setting [9]) it was 5.57; in test [3] (Homo sapiens, DU-145), 5.39; in test [4] (Homo sapiens, PC-3, 168 h), 5.20; in test [5] (Homo sapiens, MDA-MB-231), 5.10. For the same compound, the “3D sphere count of PC3” value is recorded as 41(±7) in test [6] (drug conc 0.025 uM); 39(±5) in test [6] (drug conc 0.25 uM); 27(±3) in test [6] (drug conc 2.5 uM); 14(±1) in test [6] (drug conc 25 uM); 0(±0) in test [6] (drug conc 250 uM). Further, the “3D sphere count of MDAMB231” value is recorded as 45(±2) in test [7] (drug conc 0.025 uM); 36(±3) in test [7] (drug conc 0.25 uM); 27(±2) in test [7] (drug conc 2.5 uM); 13(±2) in test [7] (drug conc 25 uM); 0(±0) in test [7] (drug conc 250 uM).
Consider `O[C@@H]1[C@H](O)COC(Oc2ccc(-c3ccc4c(c3)OCO4)c3ccccc23)[C@H]1O` (stereo partly drawn) [Formula XI, (3S,4R,5R)-2-(1-(benzo[d][1,3]dioxol-5-yl)naphthalen-4-yloxy)-tetrahydro-2H-pyran-3,4,5-triol], for which the negative logarithm of the IC50 (pIC50) in test [1] (Homo sapiens, PC-3) was 5.38; in test [8] (Homo sapiens, MCF7) it was 5.36; in test [2] (setting [9]), 5.68; in test [3] (Homo sapiens, DU-145), 4.99; in test [4] (Homo sapiens, PC-3, 168 h), 4.72; in test [5] (Homo sapiens, MDA-MB-231), 5.01.
Consider `O=C(Nc1ccc(-c2ccc3c(c2)OCO3)c2ccccc12)c1ccco1` [Formula XII, N-(1-(benzo[d][1,3]dioxol-5-yl)naphthalen-4-yl)furan-2-carboxamide], for which the pIC50 was 4.71 in test [1] (Homo sapiens, PC-3); 5.31 in test [8] (Homo sapiens, MCF7); 5.67 in test [2] (setting [9]); 5.01 in test [3] (Homo sapiens, DU-145); 5.47 in test [4] (Homo sapiens, PC-3, 168 h); 5.47 in test [5] (Homo sapiens, MDA-MB-231). Also, the “3D sphere count of PC3” value in test [6] (drug conc 0.025 uM) is listed as 37(±3); in test [6] (drug conc 0.25 uM), 28(±3); in test [6] (drug conc 2.5 uM) it was 23(±2); in test [6] (drug conc 25 uM) it was 15(±2); in test [6] (drug conc 250 uM), 0(±0). Further, the “3D sphere count of MDAMB231” value is reported as 31(±2) in test [7] (drug conc 0.025 uM); 27(±2) in test [7] (drug conc 0.25 uM); 17(±2) in test [7] (drug conc 2.5 uM); 8(±1) in test [7] (drug conc 25 uM); 0(±0) in test [7] (drug conc 250 uM).
For the compound `O=C(Oc1ccc(-c2ccc3c(c2)OCO3)c2ccccc12)C(c1ccccc1)C1CCCC1` (stereo not drawn) [Formula IX, 1-(benzo[d][1,3]dioxol-5-yl)naphthalen-4-yl 2-cyclopentyl-2-phenylacetate], the pIC50 is 5.25 in test [1] (Homo sapiens, PC-3); 5.28 in test [8] (Homo sapiens, MCF7); 5.67 in test [2] (setting [9]); 5.05 in test [3] (Homo sapiens, DU-145); 5.32 in test [4] (Homo sapiens, PC-3, 168 h); 5.28 in test [5] (Homo sapiens, MDA-MB-231). The “3D sphere count of PC3” value is 60(±7) in test [6] (drug conc 0.025 uM); 44(±4) in test [6] (drug conc 0.25 uM); 37(±5) in test [6] (drug conc 2.5 uM); 31(±3) in test [6] (drug conc 25 uM); 0(±0) in test [6] (drug conc 250 uM). Further, the “3D sphere count of MDAMB231” value is on record as 52(±4) in test [7] (drug conc 0.025 uM); 40(±5) in test [7] (drug conc 0.25 uM); 26(±3) in test [7] (drug conc 2.5 uM); 22(±3) in test [7] (drug conc 25 uM); 0(±0) in test [7] (drug conc 250 uM).
With `N.N.[Cl][Pt][Cl]` [Cisplatin, reference compound], the negative logarithm of the IC50 (pIC50) was 4.55 and 4.54 and 4.39 and 4.45 and 4.44 in test [1]; 4.53 and 4.49 and 4.48 in test [8]; 4.38 and 4.61 and 4.43 and 4.62 in test [2]; 4.62 and 4.37 and 4.46 and 4.45 in test [3]; 4.69 and 4.67 and 4.62 and 4.66 in test [4]; 4.49 and 4.41 and 4.43 and 4.45 in test [5]. Moreover, the “3D sphere count of PC3” value was 58(±4) and 47(±4) and 62(±5) and 45(±2) in test [6] (drug conc 0.025 uM); 47(±5) and 49(±7) and 55(±5) and 42(±3) in test [6] (drug conc 0.25 uM); 40(±3) and 41(±4) and 46(±2) and 39(±2) in test [6] (drug conc 2.5 uM); 32(±2) and 31(±5) and 33(±3) and 32(±3) in test [6] (drug conc 25 uM); 25(±3) and 30(±5) and 22(±4) and 21(±2) in test [6] (drug conc 250 uM). Further, the “3D sphere count of MDAMB231” value in test [7] (drug conc 0.025 uM) is 50(±3) and 89(±4) and 62(±6) and 67(±2); in test [7] (drug conc 0.25 uM) it was 42(±3) and 69(±7) and 48(±2) and 58(±3); in test [7] (drug conc 2.5 uM), 35(±2) and 51(±5) and 43(±2) and 46(±3); in test [7] (drug conc 25 uM), 31(±3) and 38(±8) and 37(±4) and 35(±2); in test [7] (drug conc 250 uM) it was 18(±2) and 23(±5) and 31(±4) and 26(±3).
